Measurements as given in the kinase profiling compilation of Christmann-Franck et al. (2016).

Columns and labels:
Test in all cases: radiometric filter-binding kinase assay
[1] = target: IKBKB (human) (UniProt O14920)
[2] = target: MARK1 (human) (UniProt Q9P0L2)
[3] = target: IRAK1 (human) (UniProt P51617)
[4] = target: MAP3K1 (human) (UniProt Q13233)
[5] = target: RPS6KA3 KD1 KD2 (human) (UniProt P51812)
[6] = target: CSK (human) (UniProt P41240)
[7] = target: PRKCA (human) (UniProt P17252)
[8] = target: IGF1R (human) (UniProt P08069)
[9] = target: CHEK1 (human) (UniProt O14757)
[10] = target: FLT1 (human) (UniProt P17948)
[11] = target: BTK (human) (UniProt Q06187)
[12] = target: MAP3K11 (human) (UniProt Q16584)
[13] = target: NUAK1 (human) (UniProt O60285)
[14] = target: PLK1 (human) (UniProt P53350)
Chain of PLK1 (human) (P53350 whole entry, looked up): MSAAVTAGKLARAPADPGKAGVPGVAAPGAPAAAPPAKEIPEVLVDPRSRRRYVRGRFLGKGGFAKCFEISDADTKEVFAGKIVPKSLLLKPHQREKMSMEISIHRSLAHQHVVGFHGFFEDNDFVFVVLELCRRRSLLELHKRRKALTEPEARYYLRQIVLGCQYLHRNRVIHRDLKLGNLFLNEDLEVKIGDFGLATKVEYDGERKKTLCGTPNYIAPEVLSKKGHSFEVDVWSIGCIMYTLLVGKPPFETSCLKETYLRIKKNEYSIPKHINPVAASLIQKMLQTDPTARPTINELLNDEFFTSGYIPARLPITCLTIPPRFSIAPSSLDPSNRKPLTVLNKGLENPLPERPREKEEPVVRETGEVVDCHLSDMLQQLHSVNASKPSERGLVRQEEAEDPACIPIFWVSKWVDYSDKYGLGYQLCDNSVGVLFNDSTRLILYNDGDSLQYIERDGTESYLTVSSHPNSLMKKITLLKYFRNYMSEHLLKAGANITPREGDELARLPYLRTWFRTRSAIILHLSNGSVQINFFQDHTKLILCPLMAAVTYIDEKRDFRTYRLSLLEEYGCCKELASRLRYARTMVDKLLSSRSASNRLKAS

Chain of NUAK1 (human) (O60285 whole entry, looked up): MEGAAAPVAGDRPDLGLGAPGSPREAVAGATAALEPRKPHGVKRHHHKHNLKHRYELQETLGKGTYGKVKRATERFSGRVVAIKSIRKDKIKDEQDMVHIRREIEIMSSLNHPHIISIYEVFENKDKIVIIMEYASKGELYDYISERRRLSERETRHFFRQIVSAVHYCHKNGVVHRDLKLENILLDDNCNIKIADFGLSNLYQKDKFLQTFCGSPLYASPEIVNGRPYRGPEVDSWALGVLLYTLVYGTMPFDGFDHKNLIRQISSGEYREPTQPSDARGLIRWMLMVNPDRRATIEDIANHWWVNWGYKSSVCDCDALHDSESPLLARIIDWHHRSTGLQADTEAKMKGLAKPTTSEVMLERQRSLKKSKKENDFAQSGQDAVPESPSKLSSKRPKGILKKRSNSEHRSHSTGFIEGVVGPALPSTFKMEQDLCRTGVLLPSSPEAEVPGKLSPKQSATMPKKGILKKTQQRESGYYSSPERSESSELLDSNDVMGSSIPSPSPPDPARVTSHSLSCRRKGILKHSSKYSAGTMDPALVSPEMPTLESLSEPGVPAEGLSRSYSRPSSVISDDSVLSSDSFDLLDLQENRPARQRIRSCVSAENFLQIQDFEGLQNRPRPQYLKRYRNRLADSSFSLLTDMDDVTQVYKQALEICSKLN
Chain of CHEK1 (human) (O14757 whole entry, looked up): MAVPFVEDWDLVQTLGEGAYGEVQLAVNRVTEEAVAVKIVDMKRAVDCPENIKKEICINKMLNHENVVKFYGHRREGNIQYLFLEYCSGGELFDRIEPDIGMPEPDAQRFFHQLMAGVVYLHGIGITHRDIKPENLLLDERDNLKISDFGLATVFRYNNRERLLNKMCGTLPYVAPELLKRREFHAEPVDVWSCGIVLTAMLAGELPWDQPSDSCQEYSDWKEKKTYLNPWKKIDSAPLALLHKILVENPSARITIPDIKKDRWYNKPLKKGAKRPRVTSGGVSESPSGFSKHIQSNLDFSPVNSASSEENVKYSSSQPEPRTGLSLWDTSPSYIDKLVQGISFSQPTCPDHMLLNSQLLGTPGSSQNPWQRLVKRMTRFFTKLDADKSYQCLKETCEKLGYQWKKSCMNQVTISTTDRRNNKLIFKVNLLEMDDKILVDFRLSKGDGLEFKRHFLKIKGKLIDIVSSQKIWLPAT
Chain of IKBKB (human) (O14920 whole entry, looked up): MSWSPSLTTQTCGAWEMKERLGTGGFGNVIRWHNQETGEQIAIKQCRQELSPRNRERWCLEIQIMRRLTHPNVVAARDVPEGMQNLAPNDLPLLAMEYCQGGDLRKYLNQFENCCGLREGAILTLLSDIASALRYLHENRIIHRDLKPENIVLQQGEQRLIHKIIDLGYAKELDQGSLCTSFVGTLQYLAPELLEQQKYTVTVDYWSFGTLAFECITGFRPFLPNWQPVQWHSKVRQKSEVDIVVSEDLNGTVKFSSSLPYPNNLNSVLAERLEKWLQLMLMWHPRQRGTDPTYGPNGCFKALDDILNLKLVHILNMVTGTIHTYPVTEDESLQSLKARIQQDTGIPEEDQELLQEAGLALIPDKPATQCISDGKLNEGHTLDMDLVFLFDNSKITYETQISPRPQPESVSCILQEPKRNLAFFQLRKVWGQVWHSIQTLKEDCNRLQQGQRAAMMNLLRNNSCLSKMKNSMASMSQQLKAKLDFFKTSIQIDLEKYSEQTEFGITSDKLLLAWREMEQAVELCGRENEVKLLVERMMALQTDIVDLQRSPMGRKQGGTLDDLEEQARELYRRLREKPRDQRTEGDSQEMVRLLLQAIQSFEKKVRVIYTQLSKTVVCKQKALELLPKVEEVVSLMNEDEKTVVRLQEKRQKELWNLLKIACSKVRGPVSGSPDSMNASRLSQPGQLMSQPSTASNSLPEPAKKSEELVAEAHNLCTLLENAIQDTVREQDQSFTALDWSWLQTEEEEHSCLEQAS
Chain of BTK (human) (Q06187 whole entry, looked up): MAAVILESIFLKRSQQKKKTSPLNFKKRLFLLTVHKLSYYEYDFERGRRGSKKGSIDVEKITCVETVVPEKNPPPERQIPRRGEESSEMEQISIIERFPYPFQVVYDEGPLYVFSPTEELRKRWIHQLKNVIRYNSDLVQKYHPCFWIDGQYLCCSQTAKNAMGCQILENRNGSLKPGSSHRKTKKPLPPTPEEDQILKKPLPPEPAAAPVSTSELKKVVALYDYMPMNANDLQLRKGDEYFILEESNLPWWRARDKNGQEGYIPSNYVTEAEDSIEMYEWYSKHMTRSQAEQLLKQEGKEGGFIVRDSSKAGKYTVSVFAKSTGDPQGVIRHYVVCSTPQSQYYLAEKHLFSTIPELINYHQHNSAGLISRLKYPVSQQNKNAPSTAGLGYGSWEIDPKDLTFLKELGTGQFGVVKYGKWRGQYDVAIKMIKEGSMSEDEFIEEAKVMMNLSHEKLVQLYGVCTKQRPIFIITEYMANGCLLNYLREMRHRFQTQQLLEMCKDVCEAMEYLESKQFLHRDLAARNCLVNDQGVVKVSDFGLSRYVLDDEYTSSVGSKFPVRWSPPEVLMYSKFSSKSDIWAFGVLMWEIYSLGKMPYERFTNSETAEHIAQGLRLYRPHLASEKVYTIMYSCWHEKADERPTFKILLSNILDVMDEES
Chain of MAP3K11 (human) (Q16584 whole entry, looked up): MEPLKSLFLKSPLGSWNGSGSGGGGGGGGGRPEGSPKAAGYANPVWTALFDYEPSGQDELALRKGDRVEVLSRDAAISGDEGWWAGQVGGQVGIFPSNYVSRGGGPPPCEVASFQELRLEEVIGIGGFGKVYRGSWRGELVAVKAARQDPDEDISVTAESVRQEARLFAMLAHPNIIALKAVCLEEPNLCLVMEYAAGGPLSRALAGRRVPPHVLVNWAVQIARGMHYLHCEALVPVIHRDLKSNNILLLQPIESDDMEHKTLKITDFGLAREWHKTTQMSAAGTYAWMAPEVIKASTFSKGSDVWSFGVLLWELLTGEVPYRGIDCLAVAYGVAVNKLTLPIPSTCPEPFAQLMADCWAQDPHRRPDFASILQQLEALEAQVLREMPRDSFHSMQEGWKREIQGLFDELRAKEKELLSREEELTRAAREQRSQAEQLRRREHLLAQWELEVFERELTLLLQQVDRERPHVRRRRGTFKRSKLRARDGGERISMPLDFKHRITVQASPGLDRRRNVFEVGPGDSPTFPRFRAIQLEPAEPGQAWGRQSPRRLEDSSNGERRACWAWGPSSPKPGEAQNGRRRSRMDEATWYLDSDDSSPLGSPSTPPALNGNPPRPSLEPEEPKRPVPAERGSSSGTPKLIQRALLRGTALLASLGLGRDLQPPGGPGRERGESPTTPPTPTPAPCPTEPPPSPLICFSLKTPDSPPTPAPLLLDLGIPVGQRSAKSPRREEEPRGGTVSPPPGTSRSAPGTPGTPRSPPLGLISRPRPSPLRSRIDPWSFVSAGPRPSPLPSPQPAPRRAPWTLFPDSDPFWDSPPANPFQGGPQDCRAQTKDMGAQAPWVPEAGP

**Q.** How did the residual activity ([1]; compound 0.1 µM) turn out when `CCN1CCN(Cc2ccc(NC(=O)c3ccc(C)c(Oc4ccnc5[nH]ccc45)c3)cc2C(F)(F)F)CC1` was run?
**A.** 114%

**Q.** And the residual activity ([1]; compound 1.0 µM)?
**A.** 101%

**Q.** What about the residual activity ([1]; compound 10.0 µM) of the same compound?
**A.** 44.6%

**Q.** What about the residual activity ([2]; compound 0.1 µM) of the same compound?
**A.** 114%

**Q.** What about the residual activity ([2]; compound 1.0 µM) of the same compound?
**A.** 97.2%

**Q.** What about the residual activity ([2]; compound 10.0 µM) of the same compound?
**A.** 103%

**Q.** And the residual activity ([3]; compound 0.1 µM)?
**A.** 80.9%

**Q.** And the residual activity ([3]; compound 1.0 µM)?
**A.** 72.2%

**Q.** What about the residual activity ([3]; compound 10.0 µM) of the same compound?
**A.** 33.4%

**Q.** What about the residual activity ([4]; compound 0.1 µM) of the same compound?
**A.** 127%

**Q.** What about the residual activity ([4]; compound 1.0 µM) of the same compound?
**A.** 111%

**Q.** What about the residual activity ([4]; compound 10.0 µM) of the same compound?
**A.** 108%

**Q.** And the residual activity ([5]; compound 0.1 µM)?
**A.** 94.8%

**Q.** What about the residual activity ([5]; compound 1.0 µM) of the same compound?
**A.** 93.8%

**Q.** And the residual activity ([5]; compound 10.0 µM)?
**A.** 76.3%

**Q.** What about the residual activity ([6]; compound 0.1 µM) of the same compound?
**A.** 81.8%

**Q.** And the residual activity ([6]; compound 1.0 µM)?
**A.** 15.4%

**Q.** And the residual activity ([6]; compound 10.0 µM)?
**A.** 7.86%

**Q.** And the residual activity ([7]; compound 0.1 µM)?
**A.** 94%

**Q.** What about the residual activity ([7]; compound 1.0 µM) of the same compound?
**A.** 84.4%

**Q.** What about the residual activity ([7]; compound 10.0 µM) of the same compound?
**A.** 90.5%

**Q.** And the residual activity ([8]; compound 0.1 µM)?
**A.** 107%

**Q.** What about the residual activity ([8]; compound 1.0 µM) of the same compound?
**A.** 84.8%

**Q.** And the residual activity ([8]; compound 10.0 µM)?
**A.** 6.46%

**Q.** And the residual activity ([9]; compound 0.1 µM)?
**A.** 114%

**Q.** And the residual activity ([9]; compound 1.0 µM)?
**A.** 105%

**Q.** What about the residual activity ([9]; compound 10.0 µM) of the same compound?
**A.** 110%

**Q.** And the residual activity ([10]; compound 0.1 µM)?
**A.** 69.5%

**Q.** What about the residual activity ([10]; compound 1.0 µM) of the same compound?
**A.** 15.2%

**Q.** What about the residual activity ([10]; compound 10.0 µM) of the same compound?
**A.** 2.74%

**Q.** And the residual activity ([11]; compound 0.1 µM)?
**A.** 103%

**Q.** What about the residual activity ([11]; compound 1.0 µM) of the same compound?
**A.** 85.3%

**Q.** And the residual activity ([11]; compound 10.0 µM)?
**A.** 34.2%

**Q.** What about the residual activity ([12]; compound 0.1 µM) of the same compound?
**A.** 95.1%

**Q.** What about the residual activity ([12]; compound 1.0 µM) of the same compound?
**A.** 50.3%

**Q.** And the residual activity ([12]; compound 10.0 µM)?
**A.** 8.66%

**Q.** And the residual activity ([13]; compound 0.1 µM)?
**A.** 85.8%

**Q.** What about the residual activity ([13]; compound 1.0 µM) of the same compound?
**A.** 90.5%

**Q.** And the residual activity ([13]; compound 10.0 µM)?
**A.** 84.9%

**Q.** And the residual activity ([14]; compound 0.1 µM)?
**A.** 103%

**Q.** What about the residual activity ([14]; compound 1.0 µM) of the same compound?
**A.** 91.6%

**Q.** What about the residual activity ([14]; compound 10.0 µM) of the same compound?
**A.** 95%
